From US9783536B2, “Nitrogen-containing heterocyclic compound or salt thereof” (FUJIFILM Corporation, priority 2013, dated 2017)
pIC50: −log10 of the molar value. Where two headings read alike, the source gives them in different places.

What was measured:
[1] = biological target: T1, GST fusion human ERK2 protein (Homo sapiens, UniProt P28482); experiment: ERK2 enzyme assay (1); format: biochemical; conditions: read-out: ERK2 enzyme inhibitory activity (1)
T1 construct: purchased Carna Biosciences, Inc; host or cells: E. coli expression system
T1 sequence (P28482 whole entry, the tested form may be a part): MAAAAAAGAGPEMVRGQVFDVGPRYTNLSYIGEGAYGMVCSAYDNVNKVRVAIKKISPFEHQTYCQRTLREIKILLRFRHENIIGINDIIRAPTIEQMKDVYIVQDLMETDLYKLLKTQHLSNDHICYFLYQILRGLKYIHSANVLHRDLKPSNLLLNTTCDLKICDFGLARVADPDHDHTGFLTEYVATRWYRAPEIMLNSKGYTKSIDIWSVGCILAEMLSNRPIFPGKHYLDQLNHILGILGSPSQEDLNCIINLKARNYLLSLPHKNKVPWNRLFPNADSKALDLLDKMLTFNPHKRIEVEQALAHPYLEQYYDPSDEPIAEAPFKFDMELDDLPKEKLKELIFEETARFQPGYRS
Procedure, shortened: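 Enzyme (2.5 nmol/L, E. coli-expressed) preincubated with compound 15 min at room temperature in HEPES/MgCl2/DTT/Brij35 buffer, pH 7.5; reaction with 4.25 μmol/L FL-Peptide 8 and 43.1 μmol/L ATP for 120 min at 25 °C. Phosphorylated peptide fraction quantified by mobility-shift separation after EDTA stop; IC50 calculated.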

CHO-K1 cells = experiment: CHO cell toxicity test; format: cell-based, Chinese hamster; conditions: Cricetulus griseus; CHO-K1 cells, 24 hours culture with compound, CellTiter-Glo; read-out: IC50 value (concentration at which the number of viable cells was suppressed to 50% or less)
Procedure, shortened: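 CHO-K1 cells were cultured 24 h, then exposed 24 h to compound at final 25.00 to 0.20 μmol/L in F-12 with 2% FCS. Viability read by CellTiter-Glo luminescence; inhibition % = 100 − (treated/untreated signal)×100.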

human PI3Kα protein = biological target: T2, human PI3Kα protein (Homo sapiens, UniProt P42336); experiment: PI3Kα enzyme assay (ADP-Glo); format: biochemical; conditions: read-out: PI3Kα enzyme inhibitory activity
T2 construct: purchased Carna Biosciences, Inc; host or cells: baculovirus expression system
T2 sequence (P42336 whole entry): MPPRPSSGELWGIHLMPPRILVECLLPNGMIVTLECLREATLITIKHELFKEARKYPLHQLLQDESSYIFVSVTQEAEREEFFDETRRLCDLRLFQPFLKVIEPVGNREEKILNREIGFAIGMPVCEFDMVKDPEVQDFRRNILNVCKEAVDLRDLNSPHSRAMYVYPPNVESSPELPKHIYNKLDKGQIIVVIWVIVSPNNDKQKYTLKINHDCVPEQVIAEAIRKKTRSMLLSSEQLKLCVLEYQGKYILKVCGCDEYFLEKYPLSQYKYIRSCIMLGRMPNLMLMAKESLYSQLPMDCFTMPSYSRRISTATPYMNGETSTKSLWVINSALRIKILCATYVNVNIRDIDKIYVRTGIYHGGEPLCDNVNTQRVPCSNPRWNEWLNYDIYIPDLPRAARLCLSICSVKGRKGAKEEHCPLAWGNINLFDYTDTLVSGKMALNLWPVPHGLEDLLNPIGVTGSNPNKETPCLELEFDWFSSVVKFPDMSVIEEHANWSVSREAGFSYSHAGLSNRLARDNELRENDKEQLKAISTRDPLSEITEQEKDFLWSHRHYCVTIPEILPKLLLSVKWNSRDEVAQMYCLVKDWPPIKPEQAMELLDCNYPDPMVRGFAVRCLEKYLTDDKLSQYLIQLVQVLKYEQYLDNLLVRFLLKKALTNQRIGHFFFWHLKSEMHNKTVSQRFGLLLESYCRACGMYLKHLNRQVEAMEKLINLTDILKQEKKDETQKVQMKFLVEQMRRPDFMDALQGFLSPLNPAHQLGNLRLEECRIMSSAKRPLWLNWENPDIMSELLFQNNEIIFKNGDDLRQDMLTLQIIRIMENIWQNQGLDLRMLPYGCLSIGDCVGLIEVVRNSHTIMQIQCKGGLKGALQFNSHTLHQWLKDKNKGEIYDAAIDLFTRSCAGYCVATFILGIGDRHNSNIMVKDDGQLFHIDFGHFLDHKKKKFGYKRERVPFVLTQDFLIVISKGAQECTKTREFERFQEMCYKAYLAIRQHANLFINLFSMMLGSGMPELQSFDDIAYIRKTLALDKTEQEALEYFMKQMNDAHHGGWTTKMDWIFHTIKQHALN
T2 sequence (P27986 whole entry partner): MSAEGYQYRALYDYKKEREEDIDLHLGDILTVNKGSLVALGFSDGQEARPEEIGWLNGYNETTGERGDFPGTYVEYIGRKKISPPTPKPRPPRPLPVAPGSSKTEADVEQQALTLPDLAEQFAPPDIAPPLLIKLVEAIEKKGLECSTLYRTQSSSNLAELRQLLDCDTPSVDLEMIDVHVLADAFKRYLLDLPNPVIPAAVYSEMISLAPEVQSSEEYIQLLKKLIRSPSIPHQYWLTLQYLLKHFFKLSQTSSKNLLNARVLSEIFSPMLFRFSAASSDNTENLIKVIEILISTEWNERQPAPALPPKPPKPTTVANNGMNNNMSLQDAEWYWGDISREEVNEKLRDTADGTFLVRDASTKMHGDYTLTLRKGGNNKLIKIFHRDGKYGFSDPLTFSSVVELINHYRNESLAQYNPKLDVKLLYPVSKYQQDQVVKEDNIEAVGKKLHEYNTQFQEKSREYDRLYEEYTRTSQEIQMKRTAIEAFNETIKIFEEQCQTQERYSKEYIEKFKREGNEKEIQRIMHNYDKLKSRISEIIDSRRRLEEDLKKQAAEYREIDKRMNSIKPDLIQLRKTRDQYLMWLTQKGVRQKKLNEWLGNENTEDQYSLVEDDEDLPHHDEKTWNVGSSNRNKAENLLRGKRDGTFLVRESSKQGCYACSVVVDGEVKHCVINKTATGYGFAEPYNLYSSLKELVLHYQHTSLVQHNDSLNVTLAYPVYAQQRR
Procedure, shortened: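 Biotinylated human PI3Kα (baculovirus-expressed, 4.5 nmol/L) pre-incubated 15 min with compound in Tris-HCl pH 7.5, MgCl2, BSA; reaction 60 min at 25° C with 50 μmol/L PIP2 and 100 μmol/L ATP final. ADP quantified by ADP-Glo luminescence; IC50 calculated.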

[2] = 2.5 nmol/L ERK2, ATP 43.1 μmol/L
[3] = 4.5 nmol/L PI3Kα, PIP2 50 μmol/L, ATP 100 μmol/L

SMILES | pIC50 ([1]; ERK2 enzyme assay (1)) | pIC50 (CHO-K1 cells) | pIC50 (human PI3Kα protein) | pIC50 [1, 2] | pIC50 (human PI3Kα protein; [3])
CC(C)c1cnnc(Nc2ccc3ncc(-c4cnn(CCCN5CCCCC5)c4)cc3n2)c1 [Example 0373, N-(5-isopropylpyridazin-3-yl)-7-(1-(3-(piperidin-1-yl)propyl)-1H-pyrazol-4-yl)-1,5-naphthyridine-2-amine] | > 6.00 | ≤ 4.60 | > 6.00 | – | –
Cn1cc(-c2cnc3ccc(Nc4cccnn4)nc3c2)cn1 [Example 0037] | – | ≤ 4.60 | – | > 6.00 | 5.00 to 6.00
c1nc2ccc(Nc3nnc(C4CC4)s3)nc2cc1-c1cnn(CCCN2CCCC2)c1 [Example 0362] | > 6.00 | ≤ 4.60 | > 6.00 | – | –
CN(C)CCCn1cc(-c2cnc3ccc(Nc4nncs4)nc3c2)cn1 [Example 0301] | > 6.00 | ≤ 4.60 | > 6.00 | – | –
CC(C)c1cnnc(Nc2ccc3ncc(-c4ccncc4)cc3n2)c1 [Example 0406] | > 6.00 | ≤ 4.60 | > 6.00 | – | –
O=S(=O)(Nc1nnc(Nc2ccc3ncc(-c4cnn(CCN5CCOCC5)c4)cc3n2)s1)c1ccccc1 [Example 0179, N-(5-((7-(1-(2-morpholinoethyl)-1H-pyrazol-4-yl)-1,5-naphthyridin-2-yl)amino)-1,3,4-thiadiazol-2-yl)benzene sulfonamide] | – | ≤ 4.60 | – | > 6.00 | > 6.00
Cn1cc(-c2cnc3ccc(Nc4nnc([C@@H]5CCCO5)s4)nc3c2)cn1 [Example 0231] | > 6.00 | ≤ 4.60 | > 6.00 | – | –
c1nnc(Nc2ccc3ncc(-c4cnn(CCCN5CCOCC5)c4)cc3n2)s1 [Example 0001, N-(7-(1-(3-morpholinopropyl)-1H-pyrazol-4-yl)-1,5-naphthyridin-2-yl)-1,3,4-thiadiazole-2-amine] | – | ≤ 4.60 | – | > 6.00 | > 6.00
Cn1cc(-c2cnc3ccc(Nc4nnc([C@H]5CCCO5)s4)nc3c2)cn1 [Example 0232] | > 6.00 | ≤ 4.60 | > 6.00 | – | –
CCc1nnc(Nc2ccc3ncc(-c4cnn(CCCN5CCCC5)c4)cc3n2)s1 [Example 0363] | > 6.00 | ≤ 4.60 | > 6.00 | – | –
CCN(CC)CCCn1cc(-c2cnc3ccc(Nc4cc(C(C)C)cnn4)nc3c2)cn1 [Example 0374, 7-(1-(3-(Diethylamino)propyl)-1H-pyrazol-4-yl)-N-(5-isopropylpyridazin-3-yl)-1,5-naphthyridine-2-amine] | > 6.00 | ≤ 4.60 | > 6.00 | – | –
c1nc2ccc(Nc3cc(C4CC4)cnn3)nc2cc1-c1cnn(CCCN2CCOCC2)c1 [Example 0298, N-(5-cyclopropylpyridazin-3-yl)-7-(1-(3-morpholinopropyl)-1H-pyrazol-4-yl)-1,5-naphthyridine-2-amine] | > 6.00 | ≤ 4.60 | > 6.00 | – | –
CC(C)(CO)c1cnnc(Nc2ccc3ncc(-c4cnn(CCCN5CCCC5)c4)cc3n2)c1 [Example 0405, 2-methyl-2-(6-((7-(1-(3-(pyrrolidin-1-yl)propyl)-1H-pyrazol-4-yl)-1,5-naphthyridin-2-yl)amino)pyridazin-4-yl)propan-1-ol] | > 6.00 | ≤ 4.60 | > 6.00 | – | –
CCCc1nn(CCCN2CCOCC2)cc1-c1cnc2ccc(Nc3cc(C(C)C)cnn3)nc2c1 [Example 0390, N-(5-isopropylpyridazin-3-yl)-7-(1-(3-morpholinopropyl)-3-propyl-1H-pyrazol-4-yl)-1,5-naphthyridine-2-amine] | > 6.00 | ≤ 4.60 | > 6.00 | – | –
OCCOc1cncc(Nc2cnc3ccc(Nc4nnc(C5CCCC5)s4)nc3c2)c1 [Example 0097] | – | ≤ 4.60 | – | > 6.00 | > 6.00
CC(C)c1cnnc(Nc2ccc3ncc(-c4cnn(CCOC5CCOCC5)c4)cc3n2)c1 [Example 0395] | > 6.00 | ≤ 4.60 | > 6.00 | – | –
